{"source": "patent US20050158264A1", "about": "“Sympathetic nerve-stimulating fragrant compositions” (SHISEIDO COMPANY, LTD., priority 2000, published 2005)", "note": "Where a name gives a salt, the structure may show the parent alone.", "data": [{"system": "sympathetic nerves", "assay": "Measurement of sympathetic nerve activity by systolic blood pressure fluctuation analysis (FLUCLET) while smelling fragrance", "type": "in vivo", "conditions": "subjects smelling fragrance 3 minutes vs 3 minutes without fragrance, FIG. 1-4", "excerpt": "Cardiac rate intervals (heartbeat intervals) and blood pressure changes (fluctuations) are complex even during resting periods, and are governed by several systems including the sympathetic and parasympathetic nervous systems. It is known that frequency analysis of heartbeat intervals and blood pressure fluctuations can used to calculate the activity of each of these systems. The high-frequency component of cardiac rate fluctuation indicates parasympathetic nerve activity while the low-frequency component indicates the combined activity of the sympathetic and parasympathetic nervous systems, and the low-frequency component of blood pressure fluctuation indicates sympathetic nerve activity (from material by Dainippon Pharmaceutical Co.). Sympathetic nerve activity was measured by analysis of systolic blood pressure fluctuation using an autonomic nervous system activity analysis system (FLUCLET, product of Dainippon Pharmaceutical Co.). Subjects were allowed to rest for 5 minutes in a thermostatic room at room temperature (24° C.), the blood pressure value was measured on the upper arm and used to correct the blood pressure value at the wrist, and then the wrist blood pressure was continuously measured thereafter. Cotton was placed under the nostrils at the start of measurement, the blood pressure was measured for 3 minutes without fragrant substance, and then the nose cotton was impregnated with fragrant substance and the blood pressure was measured for 3 minutes.", "values": [{"compound": "C=C(C)[C@H]1CC=C(C)CC1", "note": "[limonene]", "effect of fragrance on relative sympathetic nerve activity (in words)": "increased effect of sympathetic nerve activity"}, {"compound": "O=C(OCc1ccccc1)c1ccccc1", "note": "[benzyl benzoate]", "effect of fragrance on relative sympathetic nerve activity (in words)": "increased effect of sympathetic nerve activity"}, {"compound": "pinene", "effect of fragrance on relative sympathetic nerve activity (in words)": "increased effect of sympathetic nerve activity"}, {"compound": "CCOC(=O)CC(O)(CC(=O)OCC)C(=O)OCC", "note": "[TEC, triethyl citrate, reference compound]", "effect of fragrance on relative sympathetic nerve activity (in words)": "no change"}, {"compound": "C=CC(=C)CCC=C(C)C", "note": "[myrcene]", "effect of fragrance on relative sympathetic nerve activity (in words)": "increased effect of sympathetic nerve activity"}]}, {"system": "uncoupling protein-3", "assay": "not given", "conditions": "70 mg subcutaneous tissue from 6-week-old rats; caffeine 1 mM, noradrenaline 0.5 μg/ml; FIG. 6", "values": [{"compound": "Cn1c(=O)c2c(ncn2C)n(C)c1=O", "note": "[caffeine]", "expression of uncoupling protein-3": "increased expression"}]}]}
